# Test results taken from patent US20250313563A1, “GLYCOGEN SYNTHASE KINASE 3 INHIBITORS AND USES THEREOF” (The Broad Institute, Inc., priority 2022, published 2025).
# Like-named read-outs stand apart in the source and are kept apart here.
# Columns and labels:
# [1] = biological target: GSK3b (GST-full length GSK3b) (Homo sapiens (Human), UniProt P49841); assay: GSK3b TR-FRET kinase assay; format: biochemical
# Outline: (§1)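 IC50 came from the normalized 665/615 nm TR-FRET ratio plotted against log compound concentration. The Tb-labelled pSer641 antibody and streptavidin-d2 detected phosphorylation of biotinylated S645-primed glycogen synthase peptide (200 nM) by 1 nM full-length GST-kinase. ATP was 4 μM for α, 2 μM for β, or 1 mM.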
# [2] = biological target: GSK3α (GST-full length GSK3α) (Homo sapiens (Human), UniProt P49840); assay: GSK3α TR-FRET kinase assay; format: biochemical
# GSK3α (GST-full length GSK3α), sequence (P49840 whole entry): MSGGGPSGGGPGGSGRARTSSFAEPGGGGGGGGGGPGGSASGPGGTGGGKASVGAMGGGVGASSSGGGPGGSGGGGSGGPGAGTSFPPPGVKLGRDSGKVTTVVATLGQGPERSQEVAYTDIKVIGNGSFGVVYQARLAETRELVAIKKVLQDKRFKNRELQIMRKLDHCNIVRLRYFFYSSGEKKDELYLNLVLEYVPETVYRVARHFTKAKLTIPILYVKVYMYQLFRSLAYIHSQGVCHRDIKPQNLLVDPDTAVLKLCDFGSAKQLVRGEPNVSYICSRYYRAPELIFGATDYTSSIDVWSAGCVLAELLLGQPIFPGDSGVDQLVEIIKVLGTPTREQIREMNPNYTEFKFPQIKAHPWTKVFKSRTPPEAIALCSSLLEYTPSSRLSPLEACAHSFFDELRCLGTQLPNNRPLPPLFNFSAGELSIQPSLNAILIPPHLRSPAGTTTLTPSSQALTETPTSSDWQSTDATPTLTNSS
# Outline: as §1
# [3] = 1 nM GSK3b, 2 μM ATP, 30 minute preincubation, Table 16, read-out: GSK3-B TR-FRET BIOCHEMICAL (TR-FRET)
# [4] = 1 nM GSK3α, 4 μM ATP, 30 minute preincubation, Table 16, read-out: GSK3-A TR-FRET BIOCHEMICAL (TR-FRET)
# [5] = read-out: GSK3-B (TR-FRET 1 mM ATP), GMean, IC50, 1 mM ATP, geometric mean
# [6] = read-out: GSK3-A (TR-FRET 1 mM ATP), GMean, IC50, 1 mM ATP, geometric mean
# [7] = 1 nM GSK3b, 2 μM ATP, 30 minute preincubation, geometric mean, read-out: GSK3-B TR-FRET BIOCHEMICAL (TR-FRET), GMean, IC50
# [8] = 1 nM GSK3α, 4 μM ATP, 30 minute preincubation, geometric mean, read-out: GSK3-A TR-FRET BIOCHEMICAL (TR-FRET), GMean, IC50
# [9] = GSK3-B (TR-FRET 1 mM ATP), GMean, IC50, 1 mM ATP, geometric mean
# [10] = GSK3-A (TR-FRET 1 mM ATP), GMean, IC50, 1 mM ATP, geometric mean
# [11] = 1 nM GSK3b, 2 μM ATP, 30 minute preincubation, read-out: GSK3-B TR-FRET BIOCHEMICAL (TR-FRET), IC50
# [12] = 1 nM GSK3α, 4 μM ATP, 30 minute preincubation, read-out: GSK3-A TR-FRET BIOCHEMICAL (TR-FRET), IC50
# GSK3b (GST-full length GSK3b), sequence (P49841 whole entry): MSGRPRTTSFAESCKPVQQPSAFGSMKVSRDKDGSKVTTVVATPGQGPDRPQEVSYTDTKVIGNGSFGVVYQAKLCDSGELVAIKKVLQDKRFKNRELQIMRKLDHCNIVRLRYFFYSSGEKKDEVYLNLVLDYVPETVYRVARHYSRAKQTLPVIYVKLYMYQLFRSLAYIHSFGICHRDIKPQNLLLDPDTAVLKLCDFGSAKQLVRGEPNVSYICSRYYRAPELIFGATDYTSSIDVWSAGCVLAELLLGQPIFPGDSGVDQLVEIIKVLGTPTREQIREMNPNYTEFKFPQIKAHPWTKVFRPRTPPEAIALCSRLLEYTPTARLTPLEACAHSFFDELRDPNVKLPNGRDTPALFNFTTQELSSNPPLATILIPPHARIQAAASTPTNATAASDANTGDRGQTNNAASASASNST
SMILES,"IC50 [1, 3]","IC50 [2, 4]","IC50 [1, 7]","IC50 [2, 8]",other results
CCC1(c2cccc(S(=O)(=O)C3CC3)c2)C2=C(CC(C)(C)NC2=O)Nc2n[nH]c(C)c21 (centres unmarked) [Compound 947562],–,–,≤ 100 nM,≤ 100 nM,–
CCC1(c2cccc(-c3ccnc(C)c3F)c2)C2=C(CC(C)(C)NC2=O)Nc2n[nH]c(C)c21 (centres unmarked) [Compound 947563],–,–,100 to 1000 nM,≤ 100 nM,–
CCC1(c2cccc(N3CCOCC3)c2)C2=C(CC(C)(C)NC2=O)Nc2n[nH]c(C)c21 (centres unmarked) [Compound 947564],–,–,100 to 1000 nM,100 to 1000 nM,–
COCc1cccc(S(=O)(=O)N2CCC3(CC2)C2=C(CC(C)(C)CC2=O)Nc2n[nH]cc23)c1 [Compound 947605],≤ 100 nM,≤ 100 nM,–,–,–
Cn1nc(C(F)(F)F)cc1S(=O)(=O)N1CCC2(CC1)C1=C(CC(C)(C)CC1=O)Nc1n[nH]cc12 [Compound 947606],≤ 100 nM,≤ 100 nM,–,–,–
CC(C)n1cc(S(=O)(=O)N2CCC3(CC2)C2=C(CC(C)(C)CC2=O)Nc2n[nH]cc23)cn1 [Compound 947607],≤ 100 nM,≤ 100 nM,–,–,–
Cc1cc(S(=O)(=O)N2CCC3(CC2)C2=C(CC(C)(C)CC2=O)Nc2n[nH]cc23)n(C)n1 [Compound 947608],≤ 100 nM,≤ 100 nM,–,–,–
CCn1nc(C)cc1S(=O)(=O)N1CCC2(CC1)C1=C(CC(C)(C)CC1=O)Nc1n[nH]cc12 [Compound 947609],100 to 1000 nM,≤ 100 nM,–,–,–
CC1(C)CC(=O)C2=C(C1)Nc1n[nH]cc1C21CCN(S(=O)(=O)c2cnc3ccccn23)CC1 [Compound 947610],≤ 100 nM,≤ 100 nM,–,–,–
Cc1ncc(S(=O)(=O)N2CCC3(CC2)C2=C(CC(C)(C)CC2=O)Nc2n[nH]cc23)o1 [Compound 947611],≤ 100 nM,≤ 100 nM,–,–,"IC50 [1, 9]: 100 to 1000 nM; IC50 [2, 10]: 100 to 1000 nM"
COc1ccc(S(=O)(=O)N2CCC3(CC2)C2=C(CC(C)(C)CC2=O)Nc2n[nH]cc23)cc1Cl [Compound 947612],≤ 100 nM,≤ 100 nM,–,–,–
CC1(C)CC(=O)C2=C(C1)Nc1n[nH]cc1C21CCN(S(=O)(=O)c2cccnc2)CC1 [Compound 947613],≤ 100 nM,≤ 100 nM,–,–,"IC50 [1, 9]: 1000 to 5000 nM; IC50 [2, 10]: 100 to 1000 nM"
Cc1cnc2c(S(=O)(=O)N3CCC4(CC3)C3=C(CC(C)(C)CC3=O)Nc3n[nH]cc34)cccc2c1 [Compound 947614],–,–,–,–,"IC50 [1, 11]: ≤ 100 nM; IC50 [2, 12]: ≤ 100 nM"
CC1(C)CC(=O)C2=C(C1)Nc1n[nH]cc1C21CCN(S(=O)(=O)c2cnn3ccccc23)CC1 [Compound 947615],≤ 100 nM,≤ 100 nM,–,–,–
Cc1cc(S(=O)(=O)N2CCC3(CC2)C2=C(CC(C)(C)CC2=O)Nc2n[nH]cc23)cc(C)n1 [Compound 947616],≤ 100 nM,≤ 100 nM,–,–,"IC50 [1, 9]: 1000 to 5000 nM; IC50 [2, 10]: 100 to 1000 nM"
CCC1(c2cccc(-c3c(C)cncc3C)c2)C2=C(CC(C)(C)CC2=O)Nc2n[nH]cc21 (centres unmarked) [Compound 947658],–,–,–,–,"IC50 [1, 5]: 100 to 1000 nM; IC50 [2, 6]: ≤ 100 nM"
CCC1(c2cccc(N3CCCCC3)c2)C2=C(CC(C)(C)NC2=O)Nc2n[nH]c(C)c21 (centres unmarked) [Compound 947674],–,–,100 to 1000 nM,≤ 100 nM,–
CCC1(c2cccc(-c3ccnc4c3CCC4)c2)C2=C(CC(C)(C)NC2=O)Nc2n[nH]c(C)c21 (centres unmarked) [Compound 947675],–,–,100 to 1000 nM,≤ 100 nM,–
CCC1(c2cccc(-c3cn[nH]c3)c2)C2=C(CC(C)(C)NC2=O)Nc2n[nH]c(C(F)(F)F)c21 (centres unmarked) [Compound 947677],–,–,≤ 100 nM,≤ 100 nM,–
CC1CC(C(=O)N2CC3(C2)CC2(CO3)C3=C(CC(C)(C)CC3=O)Nc3n[nH]cc32)C1 (centres unmarked) [Compound 947732],–,–,–,–,"IC50 [1, 11]: 1000 to 5000 nM; IC50 [2, 12]: 100 to 1000 nM"
CC1CC(C(=O)N2CC3(C2)CC2(CO3)C3=C(CC(C)(C)CC3=O)Nc3n[nH]cc32)C1 (centres unmarked) [Compound 947733],–,–,–,–,"IC50 [1, 11]: ≤ 100 nM; IC50 [2, 12]: ≤ 100 nM"
CC1(C)CC(=O)C2=C(C1)Nc1n[nH]cc1[C@]21COC2(CN(C(=O)C3(F)CCC3)C2)C1 [Compound 947735],–,–,–,–,"IC50 [1, 11]: ≤ 100 nM; IC50 [2, 12]: ≤ 100 nM"
CC1(C)CC(=O)C2=C(C1)Nc1n[nH]cc1C21COC2(CN(C(=O)C3(F)CCC3)C2)C1 (centres unmarked) [Compound 947736],–,–,–,–,"IC50 [1, 11]: 100 to 1000 nM; IC50 [2, 12]: ≤ 100 nM"
CCC1(c2cccc(C(F)(F)F)c2)C2=C(CCN(c3ccc(F)cc3)C2=O)Nc2n[nH]cc21 (centres unmarked) [Compound 947748],–,–,100 to 1000 nM,≤ 100 nM,–
CCC1(c2cccc(S(C)(=O)=O)c2)C2=C(CC(C)(C)NC2=O)Nc2n[nH]c(C(F)(F)F)c21 (centres unmarked) [Compound 947799],–,–,≤ 100 nM,≤ 100 nM,–
CCC1(c2cccc(S(=O)(=O)C(C)C)c2)C2=C(CC(C)(C)NC2=O)Nc2n[nH]c(C(F)(F)F)c21 (centres unmarked) [Compound 947800],–,–,≤ 100 nM,≤ 100 nM,–
CCC1(c2cccc(-c3cnn4c3CCCC4)c2)C2=C(CC(C)(C)NC2=O)Nc2n[nH]c(C(F)(F)F)c21 (centres unmarked) [Compound 947801],–,–,≤ 100 nM,≤ 100 nM,–
CC[C@]1(c2cccc(-c3ccncc3F)c2)C2=C(CC(C)(C)NC2=O)Nc2n[nH]c(C)c21 [Compound 947805],–,–,1000 to 5000 nM,100 to 1000 nM,–

# Continued, in another order:
"IC50 [1, 3]","IC50 [2, 4]","IC50 [1, 7]","IC50 [2, 8]",SMILES,other results
100 to 1000 nM,≤ 100 nM,–,–,CCC1(c2cccc(-c3cnn4c3CCC4)c2)C2=C(CC(C)(C)CC2=O)Nc2n[nH]cc21 (centres unmarked) [Compound 947494],–
> 5000 nM,1000 to 5000 nM,–,–,CC[C@]1(c2cccc(Cc3ncccn3)c2)C2=C(CC(C)(C)CC2=O)Nc2n[nH]cc21 [Compound 947499],"IC50 [1, 5]: > 5000 nM; IC50 [2, 6]: > 5000 nM"
≤ 100 nM,≤ 100 nM,–,–,CC[C@@]1(c2cccc(-c3c(F)cncc3OC)c2)C2=C(CC(C)(C)CC2=O)Nc2n[nH]cc21 [Compound 947511],"IC50 [1, 5]: ≤ 100 nM; IC50 [2, 6]: ≤ 100 nM"
100 to 1000 nM,100 to 1000 nM,–,–,CCC1(c2cccc(Cc3ncccc3C(F)(F)F)c2)C2=C(CC(C)(C)CC2=O)Nc2n[nH]cc21 (centres unmarked) [Compound 947548],–
–,–,1000 to 5000 nM,1000 to 5000 nM,CCC1(c2cccc(N3CCCCC3)c2)C2=C(CC(C)(C)NC2=O)Nc2n[nH]cc21 (centres unmarked) [Compound 947566],–
–,–,≤ 100 nM,≤ 100 nM,CCC1(c2cccc(-c3c(C)nn(C)c3C)c2)C2=C(CC(C)(C)NC2=O)Nc2n[nH]c(C(F)(F)F)c21 (centres unmarked) [Compound 947568],–
≤ 100 nM,≤ 100 nM,–,–,CCC1(c2cccc(-c3ccncc3S(C)(=O)=O)c2)C2=C(CC(C)(C)CC2=O)Nc2n[nH]cc21 (centres unmarked) [Compound 947569],–
–,–,1000 to 5000 nM,100 to 1000 nM,CC[C@]1(c2cccc(-c3c(C)nn(C)c3C)c2)C2=C(CC(C)(C)NC2=O)Nc2n[nH]c(C)c21 [Compound 947573],–
–,–,≤ 100 nM,≤ 100 nM,CC[C@]1(c2cccc(-c3ccncc3C)c2)C2=C(CC(C)(C)NC2=O)Nc2n[nH]cc21 [Compound 947574],–
–,–,≤ 100 nM,≤ 100 nM,CCC1(c2cccc(-c3c(C)nn(C)c3C)c2)C2=C(CC(C)(C)NC2=O)Nc2n[nH]c(C)c21 (centres unmarked) [Compound 947575],–
–,–,1000 to 5000 nM,≤ 100 nM,CCC1(c2cccc(-c3ccncc3C)c2)C2=C(CC(C)(C)NC2=O)Nc2n[nH]cc21 (centres unmarked) [Compound 947576],–
> 5000 nM,100 to 1000 nM,–,–,CC[C@]1(c2cccc(-c3cc(C)nn3C)c2)C2=C(Nc3n[nH]cc31)[C@H](F)C(C)(C)CC2=O [Compound 947656],–
> 5000 nM,1000 to 5000 nM,–,–,CC[C@]1(c2cccc(Cc3ncccc3C(F)(F)F)c2)C2=C(CC(C)(C)CC2=O)Nc2n[nH]cc21 [Compound 947665],–
–,–,100 to 1000 nM,≤ 100 nM,CCC1(c2cccc(-c3ccnc4c3CCC4)c2)C2=C(CC(C)(C)NC2=O)Nc2n[nH]cc21 (centres unmarked) [Compound 947676],–
–,–,100 to 1000 nM,≤ 100 nM,CCC1(c2cccc(-c3ccnc(C)c3)c2)C2=C(CC(C)(C)NC2=O)Nc2n[nH]c(C)c21 (centres unmarked) [Compound 947798],–
≤ 100 nM,≤ 100 nM,–,–,CCC1(c2cccc(-c3cnnn3C)c2)C2=C(CC(C)(C)CC2=O)Nc2n[nH]cc21 (centres unmarked) [Compound 947802],–
–,–,≤ 100 nM,≤ 100 nM,CC[C@@]1(c2cccc(S(=O)(=O)C3CC3)c2)C2=C(CC(C)(C)NC2=O)Nc2n[nH]cc21 [Compound 947803],–
–,–,100 to 1000 nM,≤ 100 nM,CCC1(c2cccc(-c3cc(C)ncc3F)c2)C2=C(CC(C)(C)NC2=O)Nc2n[nH]cc21 (centres unmarked) [Compound 947804],–
–,–,≤ 100 nM,≤ 100 nM,CCC1(c2cccc(-c3cncn3C)c2)C2=C(CC(C)(C)NC2=O)Nc2n[nH]cc21 (centres unmarked) [Compound 947806],–
–,–,100 to 1000 nM,≤ 100 nM,CC[C@]1(c2cccc(-c3cnn(C)c3C)c2)C2=C(CC(C)(C)NC2=O)Nc2n[nH]c(C(F)(F)F)c21 [Compound 947807],–
≤ 100 nM,≤ 100 nM,–,–,CCC1(c2cccc(Oc3ncccn3)c2)C2=C(CC(C)(C)CC2=O)Nc2n[nH]cc21 (centres unmarked) [Compound 947808],"IC50 [1, 5]: 100 to 1000 nM; IC50 [2, 6]: ≤ 100 nM"
